Biological target: bilitranslocase (BTL) homologue
Assay: inhibition of electrogenic BSP uptake into pulp microsomes, spectrophotometric
Format: biochemical, Vitis vinifera

Row | SMILES | Ki [µM]
1 | O=C1C[C@@H](c2ccc(O)c(O)c2)Oc2cc(O)cc(O)c21 [eriodictyol] | 75.8
2 | O=c1c(O)c(-c2ccc(O)c(O)c2)oc2cc(O)cc(O)c12 [quercetin] | 97.5
